Literature values in US6306435A, “Oral pharmaceutical preparation embedded in an oily matrix and methods of making the same” (Yung Shin Pharmaceutical Industrial Co. Ltd., priority 2000, dated 2001).
Like-named read-outs stand apart in the source and are kept apart here.

Key:
[1] = not given; remark: listed apart in the source

## COc1ccc2[nH]c([S+]([O-])Cc3ncc(C)c(OC)c3C)nc2c1 (centres unmarked) [Omeprazole]
Alkaline solutions, as negatively charged ion
  solubility in alkaline solutions: very soluble
pyridinium
  pKa (pyridinium): ~ 4
water
  solubility in water: very slightly soluble
[1]; conventional oral dosage form
  degradation before reaching the small intestine: more than half
[1]; moisture, organic solvents and acidic substances
  effect of moisture, organic solvents and acidic substances on stability: deleterious effect
[1]; pH 6.5
  half-life of degradation: 18 h
[1]; pH 11
  half-life of degradation: about 300 days
[1]; water solutions, pH-values below 4
  half-life of degradation: less than 10 minutes
